PMC3606385 (PLoS ONE, 2013)
Read-outs that look alike come from different tables or passages of the source.

Columns and labels:
[1] = biological target: T1, Rat 11β-HSD2 (Rattus norvegicus, UniProt P50233); experiment: 11β-HSD2 assay in rat kidney microsomes; format: biochemical; settings: for IC50: rat kidney microsomes
T1 construct: from tissue; host or cells: rat kidney microsomes
T1 sequence (P50233 1-400): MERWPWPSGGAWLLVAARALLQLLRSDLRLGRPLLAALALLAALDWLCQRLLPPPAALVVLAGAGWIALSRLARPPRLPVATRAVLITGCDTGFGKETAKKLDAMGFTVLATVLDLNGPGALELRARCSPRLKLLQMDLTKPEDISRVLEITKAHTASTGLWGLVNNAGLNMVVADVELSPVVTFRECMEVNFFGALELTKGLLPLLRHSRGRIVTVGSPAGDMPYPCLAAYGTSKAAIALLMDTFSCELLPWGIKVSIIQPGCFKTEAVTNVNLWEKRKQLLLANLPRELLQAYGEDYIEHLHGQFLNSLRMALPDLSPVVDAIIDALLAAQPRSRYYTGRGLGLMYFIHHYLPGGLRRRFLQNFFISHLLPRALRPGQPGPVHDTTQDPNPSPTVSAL
Description: (§1) Rats were euthanized by CO2, and livers, testes and kidneys were collected. Rat liver, testis and kidney microsomes were prepared as described previously. In brief, rat liver and kidney were homogenized in […] PBS buffer containing 0.25 M sucrose, and nuclei and large cell debris were removed by centrifugation at 1500× g for 10 min. The post-nuclear supernatants were centrifuged twice at 105,000×g, the resultant microsomal pellets were resuspended. Protein contents were measured by Bio-Rad Dye Reagent Concentrate (Cat.#500-0006). Microsomes were used for measurement of 11β-HSD1 and 11β-HSD2 activities.
The rat and human kidney microsomes were used for 11β-HSD2 sources. 11β-HSD2 activity was performed in the microsome according to a previously described method. […] 8 (rat) or 20 (human) µg kidney microsomes were added to each tube to initiate the reaction and the reaction mixture was incubated for up to 3 hrs, during which the reaction is within the linear range. The rest procedure was similar to 11β-HSD1 assay. The percentage conversion of CORT to 11DHC or cortisol to cortisone was calculated by dividing the radioactive counts identified as 11keto-steroids by the total counts.
(§2) The IC50 was determined by adding different concentrations of each compound in the 11β-HSD1 or 11β-HSD2 reaction as described. The mode of inhibition was assayed by adding various concentrations of steroid substrates in the presence of an inhibitor as described.

[2] = biological target: T2, Human 11β-HSD1 (Homo sapiens, UniProt P28845); experiment: 11β-HSD1 assay in intact CHOP cells transfected with human HSD11B1; format: cell-based; settings: for Human 11β-HSD1 Potency to Curcumin (fold): CHOP cells transfected with human HSD11B1, relative to curcumin
T2 construct: expressed in transfected cells; host or cells: CHOP cells (transient, FuGENE)
T2 sequence (P28845 whole entry): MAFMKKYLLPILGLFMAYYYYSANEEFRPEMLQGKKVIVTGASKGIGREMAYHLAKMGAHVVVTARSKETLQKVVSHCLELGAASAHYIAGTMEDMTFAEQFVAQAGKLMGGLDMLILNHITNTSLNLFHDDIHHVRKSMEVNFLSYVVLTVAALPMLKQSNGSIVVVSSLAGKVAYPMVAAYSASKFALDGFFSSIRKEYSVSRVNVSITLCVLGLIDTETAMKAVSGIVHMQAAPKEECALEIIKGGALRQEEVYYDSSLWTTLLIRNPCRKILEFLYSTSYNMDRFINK
Description: (§3) An expression plasmid was constructed to express human 11β-HSD1 (HSD11B1) cDNA in pcDNA I expression vector from its original human HSD11B1 vector (pBluescriptSK+).[15]. The Escherichia coli transformants carrying an insert were selected by colony hybridization, and a clone with the insert in the correct orientation relative to the vector T7 promoter was identified by restriction mapping. All transfections were carried out on 80% confluent cultures in 12-well plates. Aliquots of 1 µg HSD11B1 pcDNA I were transfected into mammalian CHOP cells with the FuGENE Transfection Reagent (Roche) according to manufacturer's protocol. Cells were allowed to grow for 24 hours in media containing 10% fetal bovine serum. Then media were removed and cells were harvested for 11β-HSD1 activity assay.
(§4) 11β-HSD1 reductase activity was performed in intact cells using endogenous cofactor NADPH as described previously. […] 25×10^3 cells were added to each tube to initiate the reaction and the reaction mixture was incubated for up to 2 hrs, during which the reaction is within the linear range. At the end of reaction, the reaction was stopped by adding 2 ml ice-cold ether. The steroids were extracted, and the organic layer was dried under nitrogen. The steroids were separated chromatographically on thin layer plates in chloroform and methanol (90∶10, v/v), and the radioactivity was measured using a scanning radiometer (System AR2000, Bioscan Inc., Washington, DC) as described previously. The percentage conversion of 11DHC to CORT or cortisone to cortisol was calculated by dividing the radioactive counts identified as 11-OH-steroids by the total counts.
as §2

[3] = biological target: T3, Human 11β-HSD2 (Homo sapiens, UniProt P80365); experiment: 11β-HSD2 assay in human kidney microsomes; format: biochemical; settings: for IC50: human kidney microsomes, read-out: IC50 (nM) Human 11β-HSD2
T3 construct: tissue Gentest (Woburn, MA); host or cells: human kidney microsomes
T3 sequence (P80365 1-405): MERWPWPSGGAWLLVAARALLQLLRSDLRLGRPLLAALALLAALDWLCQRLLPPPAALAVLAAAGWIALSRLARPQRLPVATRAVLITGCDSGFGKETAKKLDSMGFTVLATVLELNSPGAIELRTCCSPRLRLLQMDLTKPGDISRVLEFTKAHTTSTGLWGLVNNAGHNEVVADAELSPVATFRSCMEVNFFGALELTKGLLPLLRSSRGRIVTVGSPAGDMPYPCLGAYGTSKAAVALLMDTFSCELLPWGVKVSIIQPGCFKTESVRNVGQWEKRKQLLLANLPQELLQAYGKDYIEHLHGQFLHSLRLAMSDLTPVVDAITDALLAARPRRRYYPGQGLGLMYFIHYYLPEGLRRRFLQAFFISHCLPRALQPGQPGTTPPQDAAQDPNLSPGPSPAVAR
Description: The rat and human kidney microsomes were used for 11β-HSD2 sources. 11β-HSD2 activity was performed in the microsome according to a previously described method. In brief, the assay tubes contained 25 nM substrate CORT (for rat) or cortisol (for human), spiked with 30,000 cpm their respective ^3H-11β-hydroxyl steroid, 0.2 mM NAD+ and 0.1 mM DTT in the PBS buffer. 8 (rat) or 20 (human) µg kidney microsomes were added to each tube to initiate the reaction and the reaction mixture was incubated for up to 3 hrs, during which the reaction is within the linear range. The rest procedure was similar to 11β-HSD1 assay. The percentage conversion of CORT to 11DHC or cortisol to cortisone was calculated by dividing the radioactive counts identified as 11keto-steroids by the total counts.
as §2

[4] = biological target: T4, Rat 11β-HSD1 (Rattus norvegicus, UniProt P16232); experiment: 11β-HSD1 assay in intact rat Leydig cells; format: cell-based; settings: for Rat 11β-HSD1 Potency to Curcumin (fold) / IC50: intact rat Leydig cells; for Rat 11β-HSD1 Potency to Curcumin (fold): relative to curcumin; for IC50: read-out: Rat 11β-HSD1 IC50 (nM) in Leydig cells
T4 construct: endogenous in cells; host or cells: primary adult Sprague-Dawley rat Leydig cells
T4 sequence (P16232 whole entry): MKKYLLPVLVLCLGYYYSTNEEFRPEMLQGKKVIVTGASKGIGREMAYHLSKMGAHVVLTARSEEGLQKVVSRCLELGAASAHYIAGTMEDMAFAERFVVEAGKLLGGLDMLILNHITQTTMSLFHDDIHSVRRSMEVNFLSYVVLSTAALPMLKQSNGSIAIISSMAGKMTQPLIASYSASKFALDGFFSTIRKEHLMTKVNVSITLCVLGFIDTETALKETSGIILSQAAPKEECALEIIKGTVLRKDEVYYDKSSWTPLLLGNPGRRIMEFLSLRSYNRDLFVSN
Description: Rat Leydig cells contain the highest 11β-HSD1 activity in all cell types of rat tissues, and were used for rat 11β-HSD1 enzyme sources. Purified rat Leydig cells were obtained from 90-day-old Sprague-Dawley rats by collagenase digestion of the testes followed by Percoll density centrifugation of the cell suspension, according to the previously described method. […] The purity of cell fractions was evaluated by histochemical staining for 3β-hydroxysteroid dehydrogenase activity with […] etiocholanolone as the steroid substrate.
as §4, §2

[5] = biological target: T2, Human 11β-HSD1; experiment: 11β-HSD1 assay in microsomes from CHOP cells transfected with human HSD11B1; format: biochemical; settings: microsomes, screening
Description: as §3
(§5) The rat testis and liver or human liver microsomes were used for 11β-HSD1 assay. 11β-HSD1 activity was performed in the microsome according to a previously described method. […] 2 µg microsomes were added to each tube to initiate the reaction and the reaction mixture was incubated for up to 2 hrs, during which the reaction is within the linear range. The rest procedure was similar to 11β-HSD1 assay in intact cells.
as §2

[6] = biological target: T4, Rat 11β-HSD1; experiment: 11β-HSD1 assay in adult rat testis microsomes; format: biochemical; settings: microsomes, screening
Description: as §1, §5, §2

[7] = CHOP cells transfected with human HSD11B1, read-out: Human 11β-HSD1 IC50 (nM) in CHOP cells

Row | Compound | Inhibition of rat 11β-HSD2 at 100 µM [1] | IC50 [1] [nM] | Human 11β-HSD1 Potency to Curcumin (fold) [2] [fold] | IC50 [2, 7] [nM] | Inhibition of human 11β-HSD2 at 100 µM [3] | IC50 [3] [nM] | Rat 11β-HSD1 Potency to Curcumin (fold) [4] [fold] | IC50 [4] [nM] | Inhibition of human 11β-HSD1 at 100 μM ([2]; 100 μM, intact cells) | Inhibition of rat 11β-HSD1 at 100 μM ([4]; 100 μM, intact cells) | Inhibitory effect against human 11β-HSD1 in nutraceutical screen [5] | Inhibitory effect against rat 11β-HSD1 in nutraceutical screen [6] | IC50 ([2]; intact CHOP cells transfected with human HSD11B1, read-out: IC50 human 11β-HSD1 in intact cells) [nM]
1 | Cc1ccc(/C=C2\CC/C(=C\c3ccc(C)s3)C2=O)s1 [compound 8] | did not inhibit | > 100000 | 20.68 | 111 | did not inhibit | > 100000 | 2.17 | 2670 | – | – | – | – | –
2 | Cc1ccsc1/C=C1\CC/C(=C\c2sccc2C)C1=O [compound 9, (1E,4E)-1,5-bis(3-methylthiophen-2-yl) cyclopentanone] | – | > 100000 | – | > 100000 | – | > 100000 | – | > 100000 | did not inhibit | did not inhibit | – | – | –
3 | Cn1cccc1/C=C1\CCC/C(=C\c2cccn2C)C1=O [compound 15] | – | > 100000 | 1.09 | 2100 | – | > 100000 | 0.49 | 11800 | – | – | – | – | –
4 | O=C1/C(=C/c2cccs2)CC/C1=C\c1cccs1 [compound 11] | did not inhibit | > 100000 | 10.20 | 225 | did not inhibit | > 100000 | 5.51 | 1050 | – | – | – | – | –
5 | Cc1ccc(/C=C2\CCC/C(=C\c3ccc(C)s3)C2=O)s1 [compound 13] | – | > 100000 | 0.50 | 4590 | – | > 100000 | 0.48 | 11900 | – | – | – | – | –
6 | O=C(/C=C/c1ccc(Br)o1)/C=C/c1ccc(Br)o1 [compound 2] | – | > 100000 | 2.31 | 995 | – | > 100000 | 1.38 | 4210 | – | – | – | – | –
7 | COc1ccc2cc3[n+](cc2c1OC)CCc1cc2c(cc1-3)OCO2 [berberine] | – | – | – | – | – | – | – | – | – | – | only curcumin (compound 1) showed inhibitory effects | only curcumin (compound 1) showed inhibitory effects | –
8 | O=C1/C(=C/c2ccc(Br)o2)CC/C1=C\c1ccc(Br)o1 [compound 7] | – | > 100000 | 1.73 | 1330 | – | > 100000 | 1.85 | 3130 | – | – | – | – | –
9 | Cn1cccc1/C=C1\CC/C(=C\c2cccn2C)C1=O [compound 10] | – | > 100000 | – | > 100000 | – | > 100000 | – | > 100000 | – | – | – | – | –
10 | COc1ccc(-c2oc3c(CC=C(C)C)c(O[C@@H]4O[C@H](CO)[C@@H](O)[C@H](O)[C@H]4O)cc(O)c3c(=O)c2O[C@@H]2O[C@@H](C)[C@H](O)[C@@H](O)[C@H]2O)cc1 [icariin] | – | – | – | – | – | – | – | – | – | – | only curcumin (compound 1) showed inhibitory effects | only curcumin (compound 1) showed inhibitory effects | –
11 | O=C1/C(=C/c2ccc(Br)o2)CCC/C1=C\c1ccc(Br)o1 [compound 12] | – | > 100000 | 0.75 | 3050 | – | > 100000 | 0.54 | 10800 | – | – | – | – | –
12 | O=C1/C(=C/c2cccs2)CCC/C1=C\c1cccs1 [compound 16, (1E,4E)-1,5-bis(thiophen-2-yl) cyclohexanone] | – | > 100000 | 0.64 | 3570 | – | > 100000 | 2.27 | 2550 | – | – | – | – | 3570
13 | Cc1ccsc1/C=C/C(=O)/C=C/c1sccc1C [compound 4, (1E,4E)-1,5-bis(3-methylthiophen-2-yl) penta-1,4-dien-3-one] | – | > 100000 | 12.54 | 183 | – | 19600 | 50.75 | 114 | – | – | – | – | –
